Results: ChEMBL document CHEMBL4339185 (Eur J Med Chem, 2019)
In brackets after ≈: the same amount, converted by molar mass.

Assays:
[1] = test system: Staphylococcus aureus; assay: Antimicrobial activity against methicillin-resistant Staphylococcus aureus incubated for 18 hrs by serial microdilution method; type: functional
[2] = test system: Staphylococcus aureus; assay: Antimicrobial activity against Staphylococcus aureus ATCC 6538 incubated for 18 hrs by serial microdilution method; type: functional; conditions: ATCC 6538, 18 h
[3] = test system: Staphylococcus aureus; assay: Antimicrobial activity against MLSB-resistant Staphylococcus aureus incubated for 18 hrs by serial microdilution method; type: functional
[4] = test system: Staphylococcus epidermidis; assay: Antimicrobial activity against Staphylococcus epidermidis ATCC 12228 incubated for 18 hrs by serial microdilution method; type: functional; conditions: ATCC 12228, 18 h
[5] = test system: Staphylococcus epidermidis; assay: Antimicrobial activity against Staphylococcus epidermidis ATCC 49134 incubated for 18 hrs by serial microdilution method; type: functional; conditions: ATCC 49134, 18 h
[6] = test system: Enterococcus faecalis; assay: Antimicrobial activity against Enterococcus faecalis ATCC 29212 incubated for 18 hrs by serial microdilution method; type: functional; conditions: ATCC 29212, 18 h
[7] = test system: Escherichia coli; assay: Antimicrobial activity against Escherichia coli ATCC 25922 incubated for 18 hrs by serial microdilution method; type: functional; conditions: ATCC 25922, 18 h
[8] = Solubility of the compound in water at pH 7 by UV-vis spectrophotometric analysis; type: physicochemical
[9] = Lipophilicity, log P of the compound in octanol and water incubated for 1 h under shaking condition; type: physicochemical

| SMILES | MIC [1] | MIC [2] | MIC [3] | MIC [4] | MIC [5] | MIC [6] | MIC [7] | solubility [8] | logP at 1 h [9] |
| --- | --- | --- | --- | --- | --- | --- | --- | --- | --- |
| CO[C@H]1/C=C/O[C@@]2(C)Oc3c(C)c(O)c4c(O)c(c(/C=N/NCc5ccccc5)c(O)c4c3C2=O)NC(=O)/C(C)=C\C=C\[C@H](C)[C@H](O)[C@@H](C)[C@@H](O)[C@@H](C)[C@H](OC(C)=O)[C@@H]1C | 1 µg/mL (≈ 1.2 µM) | 0.5 µg/mL (≈ 0.602 µM) | 0.5 µg/mL (≈ 0.602 µM) | 0.25 µg/mL (≈ 0.301 µM) | 0.25 µg/mL (≈ 0.301 µM) | > 8 µg/mL | > 8 µg/mL | < 50 µg/mL | 2.34 |
| CO[C@H]1/C=C/O[C@@]2(C)Oc3c(C)c(O)c4c(O)c(c(CN5CCN(C(c6ccc(F)cc6)c6ccc(F)cc6)CC5)c(O)c4c3C2=O)NC(=O)/C(C)=C\C=C\[C@H](C)[C@H](O)[C@@H](C)[C@@H](O)[C@@H](C)[C@H](OC(C)=O)[C@@H]1C | 4 µg/mL (≈ 4.01 µM) | 4 µg/mL (≈ 4.01 µM) | 8 µg/mL (≈ 8.01 µM) | 4 µg/mL (≈ 4.01 µM) | 2 µg/mL (≈ 2 µM) | > 8 µg/mL | > 8 µg/mL | < 50 µg/mL | 2.34 |
| CO[C@H]1/C=C/O[C@@]2(C)Oc3c(C)c(O)c4c(O)c(c(/C=N/N5CCCCC5)c(O)c4c3C2=O)NC(=O)/C(C)=C\C=C\[C@H](C)[C@H](O)[C@@H](C)[C@@H](O)[C@@H](C)[C@H](OC(C)=O)[C@@H]1C | 0.0156 µg/mL (≈ 0.0193 µM) | 0.0156 µg/mL (≈ 0.0193 µM) | 0.5 µg/mL (≈ 0.619 µM) | 0.0156 µg/mL (≈ 0.0193 µM) | 0.0312 µg/mL (≈ 0.0387 µM) | 0.5 µg/mL (≈ 0.619 µM) | > 8 µg/mL | < 300 µg/mL | 3.27 |
| CO[C@H]1/C=C/O[C@@]2(C)Oc3c(C)c(O)c4c(O)c(c(/C=N/Nc5ccccc5)c(O)c4c3C2=O)NC(=O)/C(C)=C\C=C\[C@H](C)[C@H](O)[C@@H](C)[C@@H](O)[C@@H](C)[C@H](OC(C)=O)[C@@H]1C | 0.5 µg/mL (≈ 0.613 µM) | 0.5 µg/mL (≈ 0.613 µM) | 1 µg/mL (≈ 1.23 µM) | 0.5 µg/mL (≈ 0.613 µM) | 0.25 µg/mL (≈ 0.306 µM) | > 8 µg/mL | > 8 µg/mL | < 50 µg/mL | 2.75 |
| CO[C@H]1/C=C/O[C@@]2(C)Oc3c(C)c(O)c4c(O)c(c(CNCC(=O)N5CCCCC5)c(O)c4c3C2=O)NC(=O)/C(C)=C\C=C\[C@H](C)[C@H](O)[C@@H](C)[C@@H](O)[C@@H](C)[C@H](OC(C)=O)[C@@H]1C | 1 µg/mL (≈ 1.17 µM) | 1 µg/mL (≈ 1.17 µM) | 1 µg/mL (≈ 1.17 µM) | 0.5 µg/mL (≈ 0.587 µM) | 0.25 µg/mL (≈ 0.293 µM) | > 8 µg/mL | > 8 µg/mL | 120 µg/mL (≈ 141 µM) | 1.35 |
| CO[C@H]1/C=C/O[C@@]2(C)Oc3c(C)c(O)c4c(O)c(c(/C=N/N5CCN(C)CC5)c(O)c4c3C2=O)NC(=O)/C(C)=C\C=C\[C@H](C)[C@H](O)[C@@H](C)[C@@H](O)[C@@H](C)[C@H](OC(C)=O)[C@@H]1C [RIFAMPIN] | 0.0156 µg/mL (≈ 0.019 µM) | 0.0156 µg/mL (≈ 0.019 µM) | 0.0312 µg/mL (≈ 0.038 µM) | 0.0156 µg/mL (≈ 0.019 µM) | 0.0156 µg/mL (≈ 0.019 µM) | 8 µg/mL (≈ 9.72 µM) | > 8 µg/mL | – | – |
| CO[C@H]1/C=C/O[C@@]2(C)Oc3c(C)c(O)c4c(O)c(c(/C=N/NC5CCCCC5)c(O)c4c3C2=O)NC(=O)/C(C)=C\C=C\[C@H](C)[C@H](O)[C@@H](C)[C@@H](O)[C@@H](C)[C@H](OC(C)=O)[C@@H]1C | 0.5 µg/mL (≈ 0.608 µM) | 0.5 µg/mL (≈ 0.608 µM) | 0.5 µg/mL (≈ 0.608 µM) | 0.25 µg/mL (≈ 0.304 µM) | 0.25 µg/mL (≈ 0.304 µM) | 1 µg/mL (≈ 1.22 µM) | > 8 µg/mL | < 50 µg/mL | 2.1 |
| CO[C@H]1/C=C/O[C@@]2(C)Oc3c(C)c(O)c4c(O)c(c(/C=N/NC(C)(C)C)c(O)c4c3C2=O)NC(=O)/C(C)=C\C=C\[C@H](C)[C@H](O)[C@@H](C)[C@@H](O)[C@@H](C)[C@H](OC(C)=O)[C@@H]1C | 1 µg/mL (≈ 1.26 µM) | 1 µg/mL (≈ 1.26 µM) | 2 µg/mL (≈ 2.51 µM) | 1 µg/mL (≈ 1.26 µM) | 0.5 µg/mL (≈ 0.628 µM) | 8 µg/mL (≈ 10.1 µM) | > 8 µg/mL | < 50 µg/mL | 2.43 |
| CO[C@H]1/C=C/O[C@@]2(C)Oc3c(C)c(O)c4c(O)c(c(CN5CCN(C)CC5)c(O)c4c3C2=O)NC(=O)/C(C)=C\C=C\[C@H](C)[C@H](O)[C@@H](C)[C@@H](O)[C@@H](C)[C@H](OC(C)=O)[C@@H]1C | 0.5 µg/mL (≈ 0.617 µM) | 0.5 µg/mL (≈ 0.617 µM) | 1 µg/mL (≈ 1.23 µM) | 0.25 µg/mL (≈ 0.309 µM) | 0.25 µg/mL (≈ 0.309 µM) | > 8 µg/mL | > 8 µg/mL | 100 µg/mL (≈ 123 µM) | 1.76 |
| CO[C@H]1/C=C/O[C@@]2(C)Oc3c(C)c(O)c4c(O)c(c(CN5CCN(c6ncccc6C(F)(F)F)CC5)c(O)c4c3C2=O)NC(=O)/C(C)=C\C=C\[C@H](C)[C@H](O)[C@@H](C)[C@@H](O)[C@@H](C)[C@H](OC(C)=O)[C@@H]1C | 4 µg/mL (≈ 4.25 µM) | 2 µg/mL (≈ 2.13 µM) | 2 µg/mL (≈ 2.13 µM) | 0.5 µg/mL (≈ 0.531 µM) | 0.5 µg/mL (≈ 0.531 µM) | > 8 µg/mL | > 8 µg/mL | < 50 µg/mL | 2.09 |
| CO[C@H]1/C=C/O[C@@]2(C)Oc3c(C)c(O)c4c(O)c(c(CN5CCC6(CC5)NCCc5ccccc56)c(O)c4c3C2=O)NC(=O)/C(C)=C\C=C\[C@H](C)[C@H](O)[C@@H](C)[C@@H](O)[C@@H](C)[C@H](OC(C)=O)[C@@H]1C | 8 µg/mL (≈ 8.77 µM) | 8 µg/mL (≈ 8.77 µM) | 8 µg/mL (≈ 8.77 µM) | 2 µg/mL (≈ 2.19 µM) | 2 µg/mL (≈ 2.19 µM) | 4 µg/mL (≈ 4.39 µM) | > 8 µg/mL | < 50 µg/mL | 2.09 |
| CO[C@H]1/C=C/O[C@@]2(C)Oc3c(C)c(O)c4c(O)c(c(CN5CCN(c6ncccn6)CC5)c(O)c4c3C2=O)NC(=O)/C(C)=C\C=C\[C@H](C)[C@H](O)[C@@H](C)[C@@H](O)[C@@H](C)[C@H](OC(C)=O)[C@@H]1C | 1 µg/mL (≈ 1.14 µM) | 1 µg/mL (≈ 1.14 µM) | 2 µg/mL (≈ 2.29 µM) | 0.25 µg/mL (≈ 0.286 µM) | 0.25 µg/mL (≈ 0.286 µM) | > 8 µg/mL | > 8 µg/mL | 50 µg/mL (≈ 57.2 µM) | 2.02 |
| CO[C@H]1/C=C/O[C@@]2(C)Oc3c(C)c(O)c4c(O)c(c(/C=N/N5CCCCCC5)c(O)c4c3C2=O)NC(=O)/C(C)=C\C=C\[C@H](C)[C@H](O)[C@@H](C)[C@@H](O)[C@@H](C)[C@H](OC(C)=O)[C@@H]1C | 0.0625 µg/mL (≈ 0.076 µM) | 0.0625 µg/mL (≈ 0.076 µM) | 0.5 µg/mL (≈ 0.608 µM) | 0.0312 µg/mL (≈ 0.038 µM) | 0.0312 µg/mL (≈ 0.038 µM) | 0.5 µg/mL (≈ 0.608 µM) | > 8 µg/mL | < 300 µg/mL | 3.43 |
| CO[C@H]1/C=C/O[C@@]2(C)Oc3c(C)c(O)c4c(O)c(c(CN5CCC(N(C)C)CC5)c(O)c4c3C2=O)NC(=O)/C(C)=C\C=C\[C@H](C)[C@H](O)[C@@H](C)[C@@H](O)[C@@H](C)[C@H](OC(C)=O)[C@@H]1C | 0.25 µg/mL (≈ 0.298 µM) | 0.25 µg/mL (≈ 0.298 µM) | 0.125 µg/mL (≈ 0.149 µM) | 0.125 µg/mL (≈ 0.149 µM) | 0.125 µg/mL (≈ 0.149 µM) | 8 µg/mL (≈ 9.55 µM) | > 8 µg/mL | 1870 µg/mL (≈ 2230 µM) | 1.23 |
| CO[C@H]1/C=C/O[C@@]2(C)Oc3c(C)c(O)c4c(O)c(c(CNC5CCCNC5=O)c(O)c4c3C2=O)NC(=O)/C(C)=C\C=C\[C@H](C)[C@H](O)[C@@H](C)[C@@H](O)[C@@H](C)[C@H](OC(C)=O)[C@@H]1C (some centres not stated) | 0.25 µg/mL (≈ 0.303 µM) | 0.5 µg/mL (≈ 0.607 µM) | 0.5 µg/mL (≈ 0.607 µM) | 0.25 µg/mL (≈ 0.303 µM) | 0.25 µg/mL (≈ 0.303 µM) | > 8 µg/mL | > 8 µg/mL | 210 µg/mL (≈ 255 µM) | 1.14 |
| CO[C@H]1/C=C/O[C@@]2(C)Oc3c(C)c(O)c4c(O)c(c5c(nc6cc(C)ccn65)c4c3C2=O)NC(=O)/C(C)=C\C=C\[C@H](C)[C@H](O)[C@@H](C)[C@@H](O)[C@@H](C)[C@H](OC(C)=O)[C@@H]1C [RIFAXIMIN] | 0.0625 µg/mL (≈ 0.0795 µM) | 0.0625 µg/mL (≈ 0.0795 µM) | 0.125 µg/mL (≈ 0.159 µM) | 0.0312 µg/mL (≈ 0.0398 µM) | 0.0312 µg/mL (≈ 0.0398 µM) | 8 µg/mL (≈ 10.2 µM) | > 8 µg/mL | – | – |
| CO[C@H]1/C=C/O[C@@]2(C)Oc3c(C)c(O)c4c(O)c(c(C=O)c(O)c4c3C2=O)NC(=O)/C(C)=C\C=C\[C@H](C)[C@H](O)[C@@H](C)[C@@H](O)[C@@H](C)[C@H](OC(C)=O)[C@@H]1C | 4 µg/mL (≈ 5.51 µM) | 2 µg/mL (≈ 2.76 µM) | 2 µg/mL (≈ 2.76 µM) | 2 µg/mL (≈ 2.76 µM) | 2 µg/mL (≈ 2.76 µM) | > 8 µg/mL | > 8 µg/mL | – | – |
